Laboratory results from ChEMBL document CHEMBL4342418, “1,2,3-Triazole-containing hybrids as potential anticancer agents: Current developments, action mechanisms and structure-activity relationships” (Eur J Med Chem, 2019).
Blank lines part the entries; values can stand above or below the molecule they belong to.

Columns and labels:
A549 [1] = experiment: Antiproliferative activity against human A549 cells assessed as reduction in cell viability after 48 hrs by SRB assay; type: functional, cell-based; conditions: A549, 48 h
MCF7 [2] = experiment: Antiproliferative activity against human MCF7 cells assessed as reduction in cell viability after 48 hrs by SRB assay; type: functional, cell-based; conditions: MCF7, 48 h
HT-29 [3] = experiment: Antiproliferative activity against human HT-29 cells assessed as reduction in cell viability after 48 hrs by SRB assay; type: functional, cell-based; conditions: HT-29, 48 h
HCT-116 [4] = experiment: Antiproliferative activity against human HCT116 cells assessed as reduction in cell viability after 48 hrs by SRB assay; type: functional, cell-based; conditions: HCT-116, 48 h
HCT-116 [5] = experiment: Antiproliferative activity against human HCT116 cells assessed as reduction in cell viability after 48 hrs by MTT assay; type: functional, cell-based; conditions: HCT-116, 48 h
DU-145 [6] = experiment: Antiproliferative activity against human DU145 cells by SRB assay; type: functional, cell-based
DU-145 [7] = experiment: Antiproliferative activity against human DU145 cells assessed as reduction in cell viability after 48 hrs by MTT assay; type: functional, cell-based; conditions: DU-145, 48 h
MDA-MB-231 [8] = experiment: Antiproliferative activity against human MDA-MB-231 cells by SRB assay; type: functional
HeLa [9] = experiment: Antiproliferative activity against human HeLa cells by SRB assay; type: functional, cell-based
HT-29 [10] = experiment: Antiproliferative activity against human HT-29 cells assessed as reduction in cell viability after 48 hrs by MTT assay; type: functional, cell-based; conditions: HT-29, 48 h
MDA-MB-231 [11] = experiment: Antiproliferative activity against human MDA-MB-231 cells assessed as reduction in cell viability after 48 hrs by MTT assay; type: functional, cell-based; conditions: MDA-MB-231, 48 h
A549 [12] = experiment: Antiproliferative activity against human A549 cells assessed as reduction in cell viability after 48 hrs by MTT assay; type: functional, cell-based; conditions: A549, 48 h
HEK293 [13] = experiment: Cytotoxicity against HEK293 cells assessed as reduction in cell viability after 48 hrs by MTT assay; type: cell-based; conditions: Homo sapiens, HEK293, 48 h
HepG2 [14] = experiment: Antiproliferative activity against human HepG2 cells by SRB assay; type: functional, cell-based
MDA-MB-231 [15] = experiment: Antiproliferative activity against human MDA-MB-231 cells by MTT assay; type: functional, cell-based
HEK293 [16] = experiment: Cytotoxicity against HEK293 cells by MTT assay; type: cell-based; conditions: Homo sapiens
MCF7-DOX = experiment: Antiproliferative activity against human MCF7/Dox cells by SRB assay; type: functional, cell-based
MCF7 [17] = experiment: Antiproliferative activity against human MCF7 cells by SRB assay; type: functional, cell-based
A549 [18] = experiment: Antiproliferative activity against human A549 cells by SRB assay; type: functional, cell-based
SK-OV-3 = experiment: Antiproliferative activity against human SKOV3 cells by SRB assay; type: functional, cell-based
HepG2 [19] = experiment: Antiproliferative activity against human HepG2 cells assessed as reduction in cell viability after 72 hrs by MTT assay; type: functional, cell-based; conditions: HepG2, 72 h
MCF7 [20] = experiment: Antiproliferative activity against human MCF7 cells assessed as reduction in cell viability after 72 hrs by MTT assay; type: functional, cell-based; conditions: MCF7, 72 h
A549 [21] = experiment: Antiproliferative activity against human A549 cells assessed as reduction in cell viability after 72 hrs by MTT assay; type: functional, cell-based; conditions: A549, 72 h
DU-145 [22] = experiment: Antiproliferative activity against human DU145 cells by MTT assay; type: functional, cell-based
HT-29 [23] = experiment: Antiproliferative activity against human HT-29 cells by MTT assay; type: functional, cell-based
MV4-11 = experiment: Antiproliferative activity against human MV4-11 cells by MTT assay; type: functional, cell-based
A549 [24] = experiment: cells; type: functional, cell-based; conditions: Homo sapiens
Description: Antiproliferative activity against human A549 cells by MTT assay

MCF-10A = experiment: Cytotoxicity against human MCF10A cells by MTT assay; type: cell-based
MCF7 [25] = experiment: cells; type: functional, cell-based; conditions: Homo sapiens
Description: Antiproliferative activity against human MCF7 cells by MTT assay

HBL-100 = experiment: Antiproliferative activity against human HBL100 cells assessed as reduction in cell viability after 48 hrs by MTT assay; type: functional, cell-based; conditions: HBL-100, 48 h
IMR-32 = experiment: Antiproliferative activity against human IMR32 cells assessed as reduction in cell viability after 72 hrs by MTT assay; type: functional, cell-based; conditions: IMR-32, 72 h
U-87 MG = experiment: Antiproliferative activity against human U87 cells assessed as reduction in cell viability after 72 hrs by MTT assay; type: functional, cell-based, U-87MG ATCC
MDA-MB-231 [26] = experiment: Antiproliferative activity against human MDA-MB-231 cells assessed as reduction in cell viability after 72 hrs by MTT assay; type: functional, cell-based; conditions: MDA-MB-231, 72 h, read-out: IC50
HT-29 [27] = experiment: Antiproliferative activity against human HT-29 cells assessed as reduction in cell viability after 72 hrs by MTT assay; type: functional, cell-based; conditions: HT-29, 72 h
MOLT-4 = experiment: Antiproliferative activity against human MOLT4 cells assessed as reduction in cell viability after 72 hrs by MTT assay; type: functional, cell-based; conditions: MOLT-4, 72 h
K562 = experiment: Antiproliferative activity against human K562 cells assessed as reduction in cell viability after 72 hrs by MTT assay; type: functional, cell-based; conditions: K562, 72 h
HeLa [28] = experiment: Antiproliferative activity against human HeLa cells assessed as reduction in cell viability after 72 hrs by MTT assay; type: functional, cell-based
Caco-2 = experiment: Antiproliferative activity against human Caco2 cells assessed as reduction in cell viability after 72 hrs by MTT assay; type: functional, cell-based; conditions: Caco-2, 72 h
[29] = Cytotoxicity against dog MDCK1 cells assessed as reduction in cell viability after 72 hrs by MTT assay; type: cell-based; conditions: Canis lupus familiaris, MDCK1, 72 h

IC50 (DU-145 [6]): 15.5 to 31.5 µM
IC50 (HeLa [9]): 15.5 to 31.5 µM
IC50 (MCF7-DOX): 15.5 to 31.5 µM
IC50 (MCF7 [17]): 15.5 to 31.5 µM
IC50 (A549 [18]): 15.5 to 31.5 µM
IC50 (SK-OV-3): 15.5 to 31.5 µM
IC50 (HepG2 [14]): 15.5 to 31.5 µM
Compound: Cc1ccc2c(c1)/C(=N/O)C(=O)N2CCOCCn1cc(COc2ccc3c(C)cc(=O)oc3c2)nn1

IC50 (HepG2 [19]): 2.4 to 4.7 µM
IC50 (MCF7 [20]): 2.4 to 4.7 µM
IC50 (A549 [21]): 2.4 to 4.7 µM
Compound: COc1cc2c(Oc3ccc(NC(=O)C4(C(=O)Nc5ccc(F)cc5)CC4)cc3F)ccnc2cc1OCCCN1CCOCC1 [FORETINIB]

IC50 (HCT-116 [5]): 5.16 to 9.44 µM
IC50 (HT-29 [10]): 5.16 to 9.44 µM
IC50 (A549 [12]): 5.16 to 9.44 µM
Compound: COc1cc(-n2cc(CO[C@H]3CC[C@@]4(C)C(=CC[C@H]5[C@@H]6C[C@@H]7O[C@]8(CC[C@@H](C)CO8)[C@@H](C)[C@@H]7[C@@]6(C)CC[C@@H]54)C3)nn2)cc(OC)c1OC
IC50 (HBL-100): 5.16 to 9.44 µM

IC50 (U-87 MG): 0.042 to 0.478 µM
IC50 (MDA-MB-231 [26]): 0.042 to 0.478 µM
Compound: Cc1n[nH]c(=O)c2c1c1cc(F)ccc1n2Cc1cn(C2CCCCC2)nn1
IC50 (IMR-32): 0.042 to 0.478 µM

IC50 (K562): 9.7 to 81.9 µM
IC50 (HeLa [28]): 9.7 to 81.9 µM
IC50 (Caco-2): 9.7 to 81.9 µM
Compound: COc1ccccc1-c1cn(Cc2cc(=O)oc3cc(O)c(O)cc23)nn1
IC50 [29]: 36.7 to 46 µM

Continued, molecule first:

Compound: Cc1ccc(-c2nn(-c3ccccc3)cc2/C=C/C(=O)OCc2cn(-c3ccc([N+](=O)[O-])cc3)nn2)cc1
IC50 (A549 [1]): 1.76 to 9.46 µM
IC50 (MCF7 [2]): 1.76 to 9.46 µM
IC50 (HT-29 [3]): 1.76 to 9.46 µM
IC50 (HCT-116 [4]): 1.76 to 9.46 µM

Compound: COC(=O)Nc1nc2cc(C(=O)c3cccs3)ccc2[nH]1 [NOCODAZOLE]
IC50 (HCT-116 [5]): 1.38 to 1.65 µM
GI50 (DU-145 [6]): 0.011 to 0.034 µM
IC50 (DU-145 [7]): 1.38 to 3.1 µM
GI50 (MDA-MB-231 [8]): 0.011 to 0.034 µM
GI50 (HeLa [9]): 0.011 to 0.034 µM
IC50 (HT-29 [10]): 2.2 to 3.1 µM
IC50 (MDA-MB-231 [11]): 1.38 to 1.65 µM
IC50 (A549 [12]): 1.38 to 3.1 µM
IC50 (HEK293 [13]): 2.2 to 3.1 µM
GI50 (HepG2 [14]): 0.011 to 0.034 µM

Compound: Cc1ccc(-n2nc(N)c(C(=O)NCCNC(=O)c3nn(-c4ccc(C)cc4)nc3N)n2)cc1
IC50 (MDA-MB-231 [15]): 7 µM
IC50 (HEK293 [16]): > 50 µM

Compound: CC[C@@]1(O)C(=O)OCc2c1cc1n(c2=O)Cc2cc3ccccc3nc2-1 [CAMPTOTHECIN]
IC50 (A549 [1]): 0.03 to 0.8 µM
IC50 (MCF7 [2]): 0.03 to 0.8 µM
IC50 (HT-29 [3]): 0.03 to 0.8 µM
IC50 (HCT-116 [4]): 0.03 to 0.8 µM

Compound: C=CCC1CN2CCC1CC2[C@@H](c1ccnc2ccc(OC)cc12)n1cc(-c2ccc3ccccc3n2)nn1 (stereo not given in full)
IC50 (DU-145 [22]): 0.53 to 14.6 µM
IC50 (HT-29 [23]): 0.53 to 14.6 µM
IC50 (MV4-11): 0.53 to 14.6 µM
IC50 (A549 [24]): 0.53 to 14.6 µM
IC50 (MCF-10A): 0.53 to 14.6 µM
IC50 (MCF7 [25]): 0.53 to 14.6 µM

Compound: C=CCC1CN2CCC1CC2[C@H](O)c1cc(-c2cn(-c3ccccc3)nn2)nc2ccc(OC)cc12 (stereo not given in full)
IC50 (DU-145 [22]): 0.53 to 6.4 µM
IC50 (HT-29 [23]): 0.53 to 6.4 µM
IC50 (MV4-11): 0.53 to 6.4 µM
IC50 (A549 [24]): 0.53 to 6.4 µM
IC50 (MCF-10A): 0.53 to 6.4 µM
IC50 (MCF7 [25]): 0.53 to 6.4 µM

Compound: CC(C)(C)c1ccc(Cn2cc(CNC3=CC(=O)c4ccccc4C3=O)nn2)cc1
IC50 (HT-29 [27]): 6.8 to 31.7 µM
IC50 (MOLT-4): 6.8 to 31.7 µM
IC50 (MCF7 [20]): 6.8 to 31.7 µM

Compound: Cc1n[nH]c(=O)c2c1c1cc(F)ccc1n2Cc1cn(Cc2ccc(F)cc2)nn1
IC50 (IMR-32): 0.042 to 0.478 µM
IC50 (U-87 MG): 0.042 to 0.478 µM
IC50 (MDA-MB-231 [26]): 0.042 to 0.478 µM

Compound: C=CCC1CN2CCC1CC2[C@H](O)c1cc(-c2cn(-c3ccc(O)cc3)nn2)nc2ccc(OC)cc12 (stereo not given in full)
IC50 (DU-145 [22]): 0.53 to 14.6 µM
IC50 (HT-29 [23]): 0.53 to 14.6 µM
IC50 (MV4-11): 0.53 to 14.6 µM
IC50 (A549 [24]): 0.53 to 14.6 µM
IC50 (MCF-10A): 0.53 to 14.6 µM
IC50 (MCF7 [25]): 0.53 to 14.6 µM
